Where two headings read alike, the source gives them in different places.
What was measured:
[1] = Vapor pressure measurement of pyrethroid compounds with the vapor pressure measuring apparatus
[2] = at 30° C.; cited from earlier work
[3] = test system: Northern house mosquito (female adult); assay: Insecticidal test in acrylic resin cylinder, air blown through impregnated honeycomb carrier (Example 1); type: in vivo; conditions: 500 mg preparation; for number of knockdowns: 26 to 30° C.
Text: Testing apparatus 1 shown in FIG. 1 comprising acrylic resin cylinder 4 was used. Twenty of northern house mosquitos (female adult) were put in the space partitioned with insect nets 2, and blower 3 was set at the bottom of testing apparatus 1. Preparation-retaining material 5 comprising a honeycomb carrier impregnated with a preparation was fitted in at the lower part of cylinder 4 and above blower 3. Air was blown from the bottom of cylinder 4 and passed through the preparation-retaining material 5 to release the pesticidal component from the preparation, and the insecticidal effect was examined using apparatus 1 for insect control of the present invention.
The number of knockdowns of the mosquitos was counted for every 30 seconds during 10 minutes and 30 seconds following the start of the testing. The mosquitos knocked down were transferred to a clean plastic cup (volume: about 500 ml) containing a cotton wad impregnated with a 1% aqueous sugar solution as feed, and the cup was covered and maintained under constant temperature conditions of about 25° C. […]
The preparation-retaining material used herein was prepared as follows. A honeycomb structure (70×70×15 mm) comprising a laminate of corrugated boards (single-sided) made of bleached kraft paper having a basis weight of 80 g/m^2 (height of the corrugation: about 2 mm) was uniformly impregnated with 3 ml of an acetone solution containing about 500 mg of preparation. The impregnated carrier was set in the apparatus after acetone vaporized.

[4] = Vapor pressure at 30° C. on the cox diagram; type: physicochemical
Experimental: Compounds which are hard to vaporize at normal temperature can be used in the present invention as a pesticidal component. Those having a vapor pressure […] than 1×10^−7 mmHg at 30° C. and a boiling point of not lower than 120° C./1 mmHg are preferred. It should be noted that the range of vapor pressure as referred to herein is the range at 30° C. on the vapor pressure vs. temperature plot in the cox diagram hereinafter described.
The results of our study have made it possible to suppose or know the vapor pressure at a target temperature by utilizing the cox diagram only if at least one found value is available. The aforesaid problem can thus be solved.
The cox diagram as used herein is the straight line or a group of the straight lines obtained by plotting log P as ordinate and t/(t+C) as abscissa on a graph.

[5] = test system: sensitive smokybrown cockroaches (Periplaneta fuliginosa); assay: Cockroach knockdown and mortality in 24 m^3 test room (Example 3); type: in vivo; conditions: 1.0 g pesticidal component
Experimental: (§1) The insect pest control apparatus of the present invention was put at the center of the floor of the room, and two cups each containing 20 cockroaches were placed at each of the two opposite corners of the floor. The pesticidal component shown in Table 5 below was released from the apparatus for consecutive 24 hours. As test insects, sensitive German cockroaches (Blatella germanica) and sensitive smokybrown cockroaches (Periplaneta fuliginosa) were used.
(§2) The preparation-retaining material used was prepared by impregnating a honeycomb carrier (70×70×15 mm; FIG. 3) with 1.0 g of the pesticidal component.

[6] = test system: sensitive German cockroaches (Blatella germanica); assay: as above; type: in vivo; conditions: 1.0 g pesticidal component
Experimental: as §1, §2

SMILES	Vapor Pressure ([1]; 20° C.)	Vapor Pressure ([1]; 25° C.)	Vapor Pressure ([1]; 30° C.)	Vapor Pressure ([1]; 35° C.)	Vapor Pressure ([1]; 40° C.)	number of knockdowns ([3]; 0.5 min)	number of knockdowns ([3]; 1.0 min)	number of knockdowns ([3]; 1.5 min)	number of knockdowns ([3]; 2.0 min)	number of knockdowns ([3]; 2.5 min)	number of knockdowns ([3]; 3.0 min)	number of knockdowns ([3]; 3.5 min)	number of knockdowns ([3]; 4.0 min)	Mortality (%) ([3]; 24 hrs.)	Mortality (%) ([3]; 48 hrs.)	Vapor Pressure at 30° C. [4]	other results
COP(=O)(OC)OC=C(Cl)Cl [DDVP]	1.2 × 10^−2 mmHg	1.9 × 10^−2 mmHg	3.0 × 10^−2 mmHg	4.6 × 10^−2 mmHg	7.1 × 10^−2 mmHg	–	–	–	–	–	–	–	–	–	–	–	Vapor Pressure [2]: 1×10^−2 mmHg
C=CCC1=C(C)C(OC(=O)C2C(C=C(C)C)C2(C)C)CC1=O (stereo not drawn) [esbiol, d-3-allyl-2-methyl-4-oxo-2-cyclopentenyl d-trans-chrysanthemate]	–	–	–	–	–	0	0	1	3	10	17	19	22	70	78	1.2 × 10^−4 mmHg	–
C#CCc1ccc(COC(=O)C2C(C=C(C)C)C2(C)C)o1 (mixture of isomers) [furamethrin, 5-propargyl-2-furylmethyl d-cis/trans-chrysanthemate]	1.3 × 10^−4 mmHg	2.2 × 10^−4 mmHg	4.5 × 10^−4 mmHg	7.1 × 10^−4 mmHg	1.4 × 10^−3 mmHg	0	0	0	1	3	8	18	19	100	100	4.5 × 10^−4 mmHg	–
C#CCC1=C(C)C(OC(=O)C2C(C=C(C)C)C2(C)C)CC1=O (mixture of isomers) [prallethrin, (+)-2-methyl-4-oxo-3-(2-propynyl)-2-cyclopentenyl (+)-cis/trans-chrysanthemate]	3.5 × 10^−5 mmHg	6.9 × 10^−5 mmHg	1.3 × 10^−4 mmHg	2.4 × 10^−4 mmHg	4.4 × 10^−4 mmHg	0	0	1	10	15	21	22	–	86	100	1.3 × 10^−4 mmHg	–
CC(C)=CC1C(C(=O)OCc2coc(Cc3ccccc3)c2)C1(C)C (mixture of isomers) [resmethrin, (5-benzyl-3-furyl)methyl d-cis/trans-chrysanthemate]	3.5 × 10^−6 mmHg	7.1 × 10^−6 mmHg	1.7 × 10^−5 mmHg	2.8 × 10^−5 mmHg	5.6 × 10^−5 mmHg	0	0	0	0	2	2	4	5	58	79	1.7 × 10^−5 mmHg	number of knockdowns ([3]; 4.5 min): 5; number of knockdowns ([3]; 5.0 min): 7; number of knockdowns ([3]; 5.5 min): 7; number of knockdowns ([3]; 6.0 min): 8; number of knockdowns ([3]; 6.5 min): 10; number of knockdowns ([3]; 7.0 min): 12; number of knockdowns ([3]; 7.5 min): 13; number of knockdowns ([3]; 8.0 min): 16; number of knockdowns ([3]; 8.5 min): 17; number of knockdowns ([3]; 9.0 min): 19
C#CC(OC(=O)C1C(C=C(C)C)C1(C)C)/C(C)=C/CC (mixture of isomers) [empenthrin, 1-ethynyl-2-methyl-2-pentenyl dl-cis/trans-3-(2,2-dimethylvinyl)-2,2-dimethyl-1-cyclopropanecarboxylate]	5.1 × 10^−4 mmHg	9.2 × 10^−4 mmHg	1.6 × 10^−3 mmHg	2.8 × 10^−3 mmHg	4.8 × 10^−3 mmHg	0	0	1	2	5	10	16	25	96	100	1.5 × 10^−3 mmHg	Knockdown Ratio (%) ([5]; 1 hr): 0%; Knockdown Ratio (%) ([5]; 2 hrs): 0%; Knockdown Ratio (%) ([5]; 4 hrs): 0%; Knockdown Ratio (%) ([5]; 24 hrs): 65.0%; Mortality at 48 hrs (%) ([5]; 48 hrs): 75.0%; Knockdown Ratio (%) ([6]; 1 hr): 0%; Knockdown Ratio (%) ([6]; 2 hrs): 0%; Knockdown Ratio (%) ([6]; 4 hrs): 0%; Knockdown Ratio (%) ([6]; 24 hrs): 90.0%; Mortality at 48 hrs (%) ([6]; 48 hrs): 90.0%
C=CCC1=C(C)C(OC(=O)C2C(C)(C)C2(C)C)CC1=O (racemic) [terallethrin, dl-3-allyl-2-methyl-4-oxo-2-cyclopentenyl dl-cis/trans-2,2,3,3-tetramethylcyclopropanecarboxylate]	2.2 × 10^−4 mmHg	4.2 × 10^−4 mmHg	6.6 × 10^−4 mmHg	1.2 × 10^−3 mmHg	4.8 × 10^−3 mmHg	0	0	4	15	17	–	–	–	88	100	6.6 × 10^−4 mmHg	–
